Source: patent US20030022909A1, “Use of methylnaltrexone to treat immune suppression” (University of Chicago, priority 2001, published 2003)
Read-outs that look alike come from different tables or passages of the source.

Legend:
natural killer cells = experiment: Animal study: number of natural killer cells in mice after treatment; format: in vivo; details: ten mice per group
[1] = cited from earlier work
[2] = white crystalline powder as provided; cited from earlier work
[3] = system: immune system effects of systemic morphine; details: rats, cited from earlier work
[4] = system: blood lymphocyte responses; details: cited from earlier work
[5] = microinjection into the third ventricle

SMILES | number of natural killer cells present after treatment compared to Group 1 (control) (natural killer cells; Group 3: methylnaltrexone and morphine) | overt side effects ([1]; intravenous 0.45 mg/kg, volunteers) | half-life ([1]; intravenous compound) | solubility in water [2] | antagonism of immune system effects of systemic morphine injection ([3]; administered intracerebroventricularly) | antagonism of immune system effects of systemic morphine injection ([3]; administered subcutaneously) | analgesic responses [4, 5] | inhibition of blood lymphocyte responses [4, 5] | plasma corticosterone concentration [4, 5] | effect on lymphocyte proliferation, plasma corticosterone concentrations or analgesic responses ([4]; systemic administration) | number of natural killer cells present after treatment compared to Group 1 (control) (natural killer cells; Group 2: placebo and morphine)
C[N@+]1(CC2CC2)CC[C@]23c4c5ccc(O)c4O[C@H]2C(=O)CC[C@@]3(O)[C@H]1C5 [methylnaltrexone, N-cyclopropylmethylnoroxymorphine-methobromide] | comparable number of natural killer cells to Group 1 | not associated with any overt side effects | less than two | freely soluble in water | antagonize most of the immune system effects | failed to do so |  |  |  |  | 
C[N+]1(C)CC[C@]23c4c5ccc(O)c4O[C@H]2[C@@H](O)C=C[C@H]3[C@@H]1C5 [N-methylmorphine] |  |  |  |  |  |  | maximal analgesic responses were present | 70% | significantly elevated | did not effect | 
CN1CC[C@]23c4c5ccc(O)c4O[C@H]2[C@@H](O)C=C[C@H]3[C@H]1C5 [morphine] |  |  |  |  |  |  | maximal analgesic responses were present | 70% |  |  | significant decrease in the number of natural killer cells
